Test systems include A549 NSCLC; ACHN renal; DU-145 prostate; BT-549 breast; COLO 205 colon; OVCAR-8 ovarian; UACC-257 melanoma; SK-OV-3 ovarian; MDA-MB-231 breast; M14 melanoma.
Common to all, as to assay: NCI tumour cell line growth inhibition, 48 h

The values below come from PubChem BioAssay (NCI).

Each structure is given as a SMILES string. Values joined by “and” are separate entries in the source; they are usually repeats but may differ in a detail not shown here. Equal entries are not always repeated.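 Five compound concentrations were applied to cells in 96-well plates for 48 hours; endpoints were derived by simple linear interpolation of the resulting dose-response curve. GI50 marks 50% less growth. TGI is the concentration that stops growth completely.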

Take `Nc1nc(N)[n+]([O-])c(N)c1NCO`: the TGI in the test on A549 NSCLC, in the test with ACHN renal, with DU-145 prostate, in the test on BT-549 breast, with COLO 205 colon and in the test with OVCAR-8 ovarian was more than 100 µM each time. In addition, the TGI with UACC-257 melanoma, with SK-OV-3 ovarian, in the test on MDA-MB-231 breast and in the test with M14 melanoma was more than 100 µM in each case.

For the compound `O=C1C2CC(Cl)C(SSC3CC4C(=O)N(SC(Cl)(Cl)C(Cl)Cl)C(=O)C4CC3Cl)CC2C(=O)N1SC(Cl)(Cl)C(Cl)Cl` (stereo not given), the TGI came out at 28.3 µM in the test on A549 NSCLC; 6.66 µM with ACHN renal; 9.44 µM in the test on DU-145 prostate; 3.41 µM in the test with BT-549 breast; 4.87 µM in the test with COLO 205 colon; 3.5 µM with OVCAR-8 ovarian. For the same compound, the TGI in the test with UACC-257 melanoma was found to be 5.79 µM; in the test on SK-OV-3 ovarian, 8.53 µM; in the test on MDA-MB-231 breast, 3.16 µM; in the test on M14 melanoma it was 2.88 µM.

In the case of `Cc1cc2c(C)c3cc(C)c(N)cc3nc2cc1N`, the GI50 was 0.636 µM in the test on A549 NSCLC; 0.422 µM with ACHN renal; 0.749 µM in the test with DU-145 prostate; 3.12 µM in the test on BT-549 breast; 0.581 µM in the test with COLO 205 colon; 0.499 µM with OVCAR-8 ovarian. The GI50 in the test on UACC-257 melanoma was 2.8 µM; in the test on SK-OV-3 ovarian, 0.963 µM; in the test on MDA-MB-231 breast, 1.09 µM; in the test on M14 melanoma, 1.83 µM. Further, the TGI in the test with A549 NSCLC is 3.16 µM; with ACHN renal it was 3.82 µM; in the test on DU-145 prostate it was 5.3 µM; in the test on BT-549 breast it was 11.6 µM; in the test on COLO 205 colon it was 3.31 µM; with OVCAR-8 ovarian, 7.54 µM. In addition, the TGI stood at 9.96 µM with UACC-257 melanoma, 8.39 µM with SK-OV-3 ovarian, 3.48 µM with MDA-MB-231 breast and 6.69 µM in the test on M14 melanoma.

Regarding `Cc1ccc2c(c1)NC(c1ccc(C(=O)O)cc1)c1cccn1-2` (stereo not given), the TGI is more than 100 µM with A549 NSCLC; 42.6 µM in the test on ACHN renal; 71.4 µM in the test on DU-145 prostate; more than 100 µM in the test with BT-549 breast; more than 100 µM with COLO 205 colon; more than 100 µM in the test with UACC-257 melanoma. Further, the TGI with SK-OV-3 ovarian is 51.8 µM; with MDA-MB-231 breast, more than 100 µM; in the test with M14 melanoma, more than 100 µM.

`COc1cc(-c2cc(C(=O)N3CCN(C(=O)c4ccccc4NCc4ccco4)CC3)nc3cc(-c4ccccc4)nn23)cc(OC)c1OC`: the GI50 with A549 NSCLC is 2.13 µM; in the test with ACHN renal, 6.97 µM; with BT-549 breast, 4.27 µM; in the test with COLO 205 colon, 1.48 µM; in the test on OVCAR-8 ovarian it was 4.38 µM; in the test on UACC-257 melanoma it was 3.92 µM. In addition, the GI50 was 2.58 µM in the test on SK-OV-3 ovarian, 5.11 µM in the test on MDA-MB-231 breast and 2.9 µM with M14 melanoma. Moreover, the TGI was more than 100 µM with A549 NSCLC; more than 100 µM with ACHN renal; more than 100 µM in the test with BT-549 breast; 8.66 µM with COLO 205 colon; more than 100 µM in the test with OVCAR-8 ovarian; more than 100 µM with UACC-257 melanoma. Also, the TGI in the test with SK-OV-3 ovarian was 18.8 µM; with MDA-MB-231 breast, more than 100 µM; in the test on M14 melanoma, more than 75.4 µM.

For `O=S(=O)(c1ccc(NC(=S)N/N=C/c2ccccc2O)cc1)N1CCCCC1`, the TGI with A549 NSCLC is more than 31.7 µM; in the test with ACHN renal, 10.2 µM; with DU-145 prostate it was more than 47.4 µM; in the test with BT-549 breast, more than 100 µM; in the test with COLO 205 colon, 36.5 µM; in the test on OVCAR-8 ovarian it was 14.9 µM. For the same compound, the TGI in the test with UACC-257 melanoma was 14.5 µM; with SK-OV-3 ovarian it was 37.9 µM; with MDA-MB-231 breast, more than 44.5 µM; with M14 melanoma, 2.78 µM.

For `Nc1cccc2c1C(=O)N(C1CCC(=O)NC1=O)C2=O` (stereo not given), the GI50 in the test on A549 NSCLC, with ACHN renal, in the test with DU-145 prostate, with BT-549 breast, with COLO 205 colon and with OVCAR-8 ovarian was more than 100 µM in each case. Besides, the GI50 in the test on UACC-257 melanoma, in the test on SK-OV-3 ovarian, in the test with MDA-MB-231 breast and in the test on M14 melanoma was more than 100 µM in each case. In addition, the TGI in the test on A549 NSCLC, with ACHN renal, in the test on DU-145 prostate, in the test with BT-549 breast, in the test on COLO 205 colon and in the test with OVCAR-8 ovarian was more than 100 µM in each case. In addition, the TGI in the test on UACC-257 melanoma, in the test with SK-OV-3 ovarian, in the test with MDA-MB-231 breast and in the test on M14 melanoma was more than 100 µM each time.

On to `COc1cccc(NC(=O)c2sc3nc4c(cc3c2N)CCCC4)c1`, for which the GI50 was 0.58 µM in the test with A549 NSCLC; 0.953 µM in the test with ACHN renal; 0.542 µM in the test on DU-145 prostate; 0.497 µM with BT-549 breast; 3.83 µM in the test on COLO 205 colon; 2.58 µM in the test on OVCAR-8 ovarian. In addition, the GI50 with UACC-257 melanoma is 0.727 µM; in the test on SK-OV-3 ovarian, 0.473 µM; with MDA-MB-231 breast, 3.88 µM. In addition, the TGI in the test with A549 NSCLC was more than 100 µM; in the test with ACHN renal, more than 100 µM; in the test with DU-145 prostate, 56.1 µM; in the test with BT-549 breast, 25.4 µM; with COLO 205 colon, more than 100 µM; with OVCAR-8 ovarian it was more than 100 µM. The TGI is more than 100 µM with UACC-257 melanoma, 29.4 µM in the test with SK-OV-3 ovarian and 26.4 µM with MDA-MB-231 breast.

For the compound `COc1cc(CCc2cc(NC(=O)c3ccc(N4C[C@@H](C)N[C@@H](C)C4)cc3)n[nH]2)cc(OC)c1`, the GI50 with A549 NSCLC was > 10 µM and 3.9 µM; with ACHN renal it was 9.45 µM and 4.41 µM; in the test with DU-145 prostate, 7.62 µM and 6.09 µM; with BT-549 breast, 5.58 µM and 1.08 µM; in the test on COLO 205 colon, 3.58 µM and 3.61 µM; with OVCAR-8 ovarian, > 10 µM and 9.01 µM. Besides, the GI50 in the test on UACC-257 melanoma was > 10 µM and 2.08 µM; in the test on SK-OV-3 ovarian, 9.23 µM and 7.04 µM; with MDA-MB-231 breast it was > 10 µM and 5.81 µM; with M14 melanoma, 7.13 µM and 2.77 µM. Also, the TGI in the test on A549 NSCLC was > 10 µM and 15.3 µM; with ACHN renal, > 10 µM and 15.3 µM; in the test on DU-145 prostate, > 10 µM and 18.5 µM; in the test on BT-549 breast it was > 10 µM and 17.2 µM; in the test with COLO 205 colon it was > 10 µM and 11.5 µM; in the test on OVCAR-8 ovarian it was > 10 µM and 25.7 µM. Moreover, the TGI with UACC-257 melanoma was > 10 µM and 5.31 µM; with SK-OV-3 ovarian, > 10 µM and 19.3 µM; in the test on MDA-MB-231 breast, > 10 µM and 19.7 µM; in the test on M14 melanoma, > 10 µM and 10.9 µM.
